Where a SMILES comes first, the peptide text is derived from it. The star is where a group is joined. pNA = O=[N+]([O-])c1ccc(N*)cc1; MeOSuc = COC(=O)CCC(=O)*
How the values were obtained:
TCT8-4 RNA = test: Competition binding of xanthine derivatives, equilibrium filtration; conditions: for Ki: 1 µM 14C-theophylline, 3.3 µM TCT8-4 RNA, read-out: Kc; for Kc(c)/Kc(t): competitor relative to theophylline
Experimental: An attractive feature of a small molecule-RNA interaction is the opportunity to readily investigate quantitatively the relative contribution of various constituents of the small molecule to the overall binding. Competition binding experiments were conducted with a variety of xanthine derivatives and related compounds. In these experiments, the effect of competitor added at various concentrations on the ^14C-theophylline-TCT8-4 RNA interaction was measured. Of particular interest were the roles of CH3 residues at the 1, 3, and 7 positions; these were assessed both individually and in combination. In addition, 1,3-dimethyluric acid probes the 8-position, as it contains a keto oxygen there relative to theophylline, and hypoxanthine, lacking the 2-position keto oxygen of xanthine, permit assessment of this constituent.
Equilibrium filtration assays were performed by the addition of various concentrations of the potential competitor to 1 µM [^14C]-theophylline and 3.3 µM TCT8-4 RNA (SEQ ID NO:249) in a 150 µl reaction mixture containing 100 mM HEPES buffer. Each reaction was performed as described in Example 23. Competition data were fit using a standard competition equation and fitting procedure (Gill et al. (1991) J. Mol. Biol. 220:307) assuming a 1:1 stoichiometry of competitor to RNA. […] From such data a competitor dissociation constant (Kc) was obtained. Under the condition where theophylline and the specific competitor bind to the same site, Kc = Kd.

T7 RNA polymerase = biological target: T1, T7 RNA polymerase (Escherichia phage T7, UniProt P00573); test: Incorporation of modified nucleotide triphosphates into RNA by T7 RNA polymerase transcription; type: biochemical; conditions: for efficiency of transcription (incorporation) as compared to UTP: three hours, 2 mM ribonucleotide triphosphates, 100 nM double-stranded DNA template, 5 units/ul T7 RNA polymerase
T1 construct: purchased NEB
Experimental: Incorporation of 5-modified uridines into RNA. Four prototypic 5-modified uridines, 5-AA-UTP, 5-F-12-UTP, 5-Dig-11-UTP, and 5-Br-UTP (shown in Figure 2) were incorporated into RNA by the T7.RNA polymerase under standard transcription conditions (40 mM Tris-Cl, pH 8.0, 12 mM MgCl2, 5 mM DTT, 1 mM spermidine, 0.002% Triton X-100, 4% PEG, 37°C). Autoradiogram of a 15% denaturing polyacrylamide gel showing products of transcription done with UTP, 5-AA-UTP, and 5-Br-UTP is shown in Figure 3. The efficiency of transcription was estimated from the total amounts of ^32P-radiolabelled transcript produced after three hours of incubation with 2 mM ribonucleotide triphosphates, 100 nM double-stranded DNA template, and 5 units/ul of T7 RNA polymerase (NEB). 5-AA-UTP, 5-F-12-UTP, 5-Dig-11-UTP, and 5-Br-UTP were incorporated with 28%, 51%, 23%, and 50% efficiency, respectively, as compared to UTP. No transcription was detectable when UTP was omitted from the transcription mixture.
The 2'-amino group of 2'-amino,2'-deoxyuridine is trifluoroacetylated (Imazawa et al. (1979) J. Org. Chem. 44:2039) in 82% yield. This intermediate is phosphorylated at the 5'-position (Ludwig and Eckstein (1989) J. Org. Chem. 54:631) in 61% yield. The 5-iodo derivative of the 2'-amino,2'-deoxyuridine 5'-triphosphate was prepared by mercuration (Dale et al. (1975) Biochemistry 14:2447) in a single step.
RGD-UTP transcription and purification. RGD-UTP was used in a T7 RNA polymerase reaction by direct substitution for normal UTP, and gave yields that were at least 50% of those obtainable with UTP. The concentration of RGD-UTP and other NTPs was 1 mM; the DNA template contained 5' and 3' fixed regions flanking a 30 base pair random sequence. The RNA transcript was purified by adsorption onto an anion exchange column (Mono Q)in a phosphate buffer containing 6 M urea and 50% formamide, and eluted with a gradient to 1 M NaCl (Figure 16). RGD-RNA eluted as one major peak from the column at a position in the gradient slightly ahead of the elution position of an equivalent RNA transcript made with normal UTP, consistent with the altered charge and perhaps altered conformation of the derivatized RNA.

[1] = biological target: T2, Human neutrophil elastase (Homo sapiens, UniProt P08246); test: Elastase inhibition assay with chromogenic tetrapeptide substrate; type: biochemical; conditions: Lineweaver-Burk plot
T2 construct: purchased Athens Research and Technology, Athens, Georgia
T2 sequence (P08246 30-267): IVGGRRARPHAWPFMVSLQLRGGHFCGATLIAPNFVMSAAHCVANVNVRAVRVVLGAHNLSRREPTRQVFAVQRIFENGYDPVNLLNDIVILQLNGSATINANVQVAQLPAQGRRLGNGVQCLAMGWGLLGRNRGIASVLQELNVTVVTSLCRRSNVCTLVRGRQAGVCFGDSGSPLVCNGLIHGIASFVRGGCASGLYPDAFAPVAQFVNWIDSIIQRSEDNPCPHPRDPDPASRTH
Excerpt: Elastase inhibition assay. The assay for elastase inhibition is based on the use of a chromogenic tetrapeptide substrate. […] The rate of p-nitroanilide generation in the absence of inhibitor was used as the control.
Elastase Inhibition Assay. The assay for elastase inhibition is based on the use of a chromogenic tetrapeptide substrate. […] The rate of p-nitroanilide generation in the absence of inhibitor was used as the negative control; the positive control contained the irreversible inhibitor N-methoxysuccinyl-Ala-Ala-Pro-Val-chloromethyl ketone. OD values were plotted against time, and the slope used to determine the rate of enzyme activity.

[2] = biological target: Human neutrophil elastase (human) (UniProt P08246); test: elastase inhibition assay with chromogenic substrate, Lineweaver-Burk plot (Figure 22)

T1 sequence (P00573 whole entry): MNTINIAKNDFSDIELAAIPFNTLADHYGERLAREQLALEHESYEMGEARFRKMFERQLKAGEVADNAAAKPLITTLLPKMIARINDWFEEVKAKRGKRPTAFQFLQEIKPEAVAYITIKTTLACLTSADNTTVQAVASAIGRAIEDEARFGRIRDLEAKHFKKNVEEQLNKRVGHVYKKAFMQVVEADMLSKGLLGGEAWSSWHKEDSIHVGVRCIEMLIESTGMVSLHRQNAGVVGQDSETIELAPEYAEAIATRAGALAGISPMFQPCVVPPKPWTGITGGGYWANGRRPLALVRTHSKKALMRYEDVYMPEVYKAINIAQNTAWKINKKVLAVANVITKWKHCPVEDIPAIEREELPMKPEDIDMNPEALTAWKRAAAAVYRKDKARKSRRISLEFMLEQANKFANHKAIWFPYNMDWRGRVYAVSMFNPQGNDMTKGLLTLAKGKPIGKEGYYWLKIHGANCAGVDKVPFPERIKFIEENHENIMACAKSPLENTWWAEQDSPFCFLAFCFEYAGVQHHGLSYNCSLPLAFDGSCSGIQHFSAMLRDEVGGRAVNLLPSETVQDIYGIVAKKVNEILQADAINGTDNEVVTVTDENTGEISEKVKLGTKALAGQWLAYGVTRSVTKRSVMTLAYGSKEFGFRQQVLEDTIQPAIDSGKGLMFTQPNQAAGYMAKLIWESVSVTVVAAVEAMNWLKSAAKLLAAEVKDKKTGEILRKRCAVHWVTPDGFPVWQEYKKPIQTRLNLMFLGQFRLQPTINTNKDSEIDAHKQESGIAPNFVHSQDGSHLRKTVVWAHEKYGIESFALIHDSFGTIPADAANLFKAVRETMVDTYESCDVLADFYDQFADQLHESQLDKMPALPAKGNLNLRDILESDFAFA

| Compound | Ki (TCT8-4 RNA) | Kc(c)/Kc(t) (TCT8-4 RNA) | further results |
| --- | --- | --- | --- |
| Cn1c(=O)[nH]c2nc[nH]c2c1=O [1-methylxanthine] | 9 ± 0.3 µM | 28 |  |
| 5-fluorescein-12-uridine triphosphate [5-F-12-UTP] |  |  | efficiency of transcription (incorporation) as compared to UTP (T7 RNA polymerase): 51% |
| Cn1c(=O)c2c(ncn2C)n(C)c1=O [Caffeine, 1,3,7-trimethylxanthine] | 3500 ± 1500 µM | 10900 | recognition by TCT8-4 RNA (TCT8-4 RNA): extremely poor competitor |
| N-methoxysuccinyl Ala-Ala-Pro-Val |  |  | Ki [1]: 920 µM |
| O=c1[nH]c(=O)c2[nH]cnc2[nH]1 [Xanthine] | 8.5 ± 0.4 µM | 27 | competition, fold less effective than theophylline (TCT8-4 RNA): about 23 fold |
| O=c1[nH]c(=O)n([C@@H]2O[C@H](COP(=O)(O)OP(=O)(O)OP(=O)(O)O)[C@@H](O)[C@H]2O)cc1Br [5-Br-UTP, 5-bromouridine triphosphate] |  |  | efficiency of transcription (incorporation) as compared to UTP (T7 RNA polymerase): 50% |
| Cn1c(=O)c2[nH]cnc2n(C)c1=O [Theophylline, 1,3-dimethylxanthine] | 0.32 ± 0.13 µM | 1 | Kd (TCT8-4 RNA; read-out: Kd for theophylline to RNA used for the competition fit): 0.45 µM |
| NCC=Cc1cn(C2OC(COP(=O)(O)OP(=O)(O)OP(=O)(O)O)C(O)C2O)c(=O)[nH]c1=O (stereo not shown) [5-AA-UTP, 5-(3-aminoallyl)uridine triphosphate] |  |  | efficiency of transcription (incorporation) as compared to UTP (T7 RNA polymerase): 28% |
| 5-digoxygenin-11-uridine triphosphate [5-Dig-11-UTP] |  |  | efficiency of transcription (incorporation) as compared to UTP (T7 RNA polymerase): 23% |
| N-methoxysuccinyl Ala-Ala-Pro-Val (SEQ ID NO:44) (peptide) |  |  | Ki [2]: 920 µM |
| COC(=O)CCC(=O)N[C@@H](C)C(=O)N[C@@H](C)C(=O)N1CCC[C@H]1C(=O)N[C@H](C(=O)Nc1ccc([N+](=O)[O-])cc1)C(C)C [substrate, N-methoxysuccinyl-Ala-Ala-Pro-Val-p-nitroanilide] (MeOSuc-AAPV-pNA) |  |  | Km [1]: 160 µM |
| Cn1cnc2[nH]c(=O)[nH]c(=O)c21 [7-methylxanthine] | > 500 µM | > 1500 | competition, fold less efficient than xanthine (TCT8-4 RNA): at least 1500 fold |
| Cn1cnc2c1c(=O)[nH]c(=O)n2C [3,7-dimethylxanthine] | > 500 µM | > 1500 | recognition by TCT8-4 RNA (TCT8-4 RNA): recognized poorly |
| Cn1c(=O)[nH]c(=O)c2[nH]cnc21 [3-methylxanthine] | 2 ± 0.7 µM | 6.3 | competition, fold better relative to xanthine (TCT8-4 RNA): approximately 5 fold |
| N[C@@H]1[C@H](O)[C@@H](COP(=O)(O)OP(=O)(O)OP(=O)(O)O)O[C@H]1n1ccc(=O)[nH]c1=O [2'-amino,2'-deoxyuridine 5'-triphosphate] |  |  | substrate for T7 RNA polymerase (T7 RNA polymerase): substrates for T7 RNA polymerase |
| 1-carboxypropyl theophylline [CP-Theophylline] | 0.93 ± 0.2 µM | 2.9 |  |
| N[C@@H]1[C@H](O)[C@@H](COP(=O)(O)OP(=O)(O)OP(=O)(O)O)O[C@H]1n1cc(I)c(=O)[nH]c1=O [5-iodo,2'-amino,2'-deoxyuridine 5'-triphosphate] |  |  | substrate for T7 RNA polymerase (T7 RNA polymerase): substrates for T7 RNA polymerase |
| O=c1[nH]cnc2nc[nH]c12 [Hypoxanthine] | 49 ± 10 µM | 153 | competition, fold less efficient than xanthine (TCT8-4 RNA): approximately 5 fold |

— patent EP1793006A2, “Nucleic acid ligands and improved methods for producing the same” (priority 1993, dated 1995)
